Results as given in US11377442B2, “Small molecule agonists and antagonists of NR2F6 activity” (ZANDER THERAPEUTICS, INC., priority 2016, dated 2022).
Like-named read-outs stand apart in the source and are kept apart here.

Key:
Type in all cases: cell-based
NR2F6 = molecular target: T1, NR2F6 (Homo sapiens, UniProt P10588); experiment: NR2F6 agonist screening, Firefly signal cmpd/DMSO; conditions: for Activity, cmpd/DMSO: Table 31
T1 construct: expressed in transfected cells; also transient transfection
T1 sequence (P10588 1-404): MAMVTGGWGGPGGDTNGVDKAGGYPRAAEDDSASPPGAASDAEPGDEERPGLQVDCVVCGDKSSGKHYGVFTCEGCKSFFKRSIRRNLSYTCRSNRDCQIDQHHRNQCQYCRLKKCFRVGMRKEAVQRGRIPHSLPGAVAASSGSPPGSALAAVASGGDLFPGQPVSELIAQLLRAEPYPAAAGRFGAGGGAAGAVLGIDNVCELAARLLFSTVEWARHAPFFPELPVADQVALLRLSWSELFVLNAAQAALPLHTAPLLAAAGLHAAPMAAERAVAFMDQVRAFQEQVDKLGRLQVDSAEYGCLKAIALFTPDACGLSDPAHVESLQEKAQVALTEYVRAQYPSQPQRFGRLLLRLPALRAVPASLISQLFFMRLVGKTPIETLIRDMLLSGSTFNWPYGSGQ

Renilla = Renilla signal in NR2F6 agonist screening, cmpd/DMSO; conditions: Renilla, F4
HEK293 pGL4 = experiment: Firefly_pGL signal, cmpd/DMSO (pGL4 control cells); conditions: Homo sapiens
NR2F6 LBD = molecular target: T2, NR2F6 LBD (Homo sapiens, UniProt P10588); experiment: NR2F6 LBD transient transfection; conditions: LBD
T2 construct: expressed in transfected cells
T2 sequence (P10588 165-393 limits assumed): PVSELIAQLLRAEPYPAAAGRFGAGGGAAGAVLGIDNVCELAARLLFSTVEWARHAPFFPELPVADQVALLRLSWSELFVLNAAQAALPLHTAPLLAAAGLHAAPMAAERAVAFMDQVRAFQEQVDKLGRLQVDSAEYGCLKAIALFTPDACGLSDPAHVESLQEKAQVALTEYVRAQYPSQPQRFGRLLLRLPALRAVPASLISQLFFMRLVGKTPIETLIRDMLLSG
Outline: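 LBD-transfected cells treated at 40, 10, 2 and 0.5 μM (4 replicates); cytotoxicity measured in parallel, normalized to DMSO (0%) and zero signal (100%). Higher concentrations excluded where signal loss reflected toxicity.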

[1] = read-out: Renilla, F4, cmpd/DMSO (mean)
[2] = 1% FBS, read-out: Renilla, F4, 1% FBS, cmpd/DMSO (mean)
[3] = 10% FBS, read-out: Renilla, F4, 10% FBS, cmpd/DMSO (mean)
[4] = HEK293, 0.5 uM, pGL4, read-out: Firefly pGL4, cmpd/DMSO (mean)
[5] = HEK293, 2 uM, pGL4, read-out: Firefly pGL4, cmpd/DMSO (mean)
[6] = HEK293, 10 uM, pGL4, read-out: Firefly pGL4, cmpd/DMSO (mean)
[7] = HEK293, 40 uM, pGL4, read-out: Firefly pGL4, cmpd/DMSO (mean)
[8] = HEK293, pGL4, 1% FBS, 0.5 uM, read-out: Firefly, pGL4, 1% FBS, cmpd/DMSO (mean)
[9] = HEK293, pGL4, 1% FBS, 2 uM, read-out: Firefly, pGL4, 1% FBS, cmpd/DMSO (mean)
[10] = HEK293, pGL4, 1% FBS, 10 uM, read-out: Firefly, pGL4, 1% FBS, cmpd/DMSO (mean)
[11] = HEK293, pGL4, 1% FBS, 40 uM, read-out: Firefly, pGL4, 1% FBS, cmpd/DMSO (mean)
[12] = HEK293, pGL4, 10% FBS, 0.5 uM, read-out: Firefly, pGL4, 10% FBS, cmpd/DMSO (mean)
[13] = HEK293, pGL4, 10% FBS, 2 uM, read-out: Firefly, pGL4, 10% FBS, cmpd/DMSO (mean)
[14] = HEK293, pGL4, 10% FBS, 10 uM, read-out: Firefly, pGL4, 10% FBS, cmpd/DMSO (mean)
[15] = HEK293, pGL4, 10% FBS, 40 uM, read-out: Firefly, pGL4, 10% FBS, cmpd/DMSO (mean)

## O=S1(=O)C[C@H](N2CCCCC2)[C@@H](S(=O)(=O)c2cccs2)C1 [Compound D105]
NR2F6; 0.5 uM
  Firefly F4, cmpd/DMSO (mean): 1.1
NR2F6; 2 uM
  Firefly F4, cmpd/DMSO (mean): 2.4
NR2F6; 10 uM
  Firefly F4, cmpd/DMSO (mean): 5.5
NR2F6; 40 uM
  Firefly F4, cmpd/DMSO (mean): 0.9
NR2F6; 1% FBS, 10 uM
  F4, Firefly/Renilla for S/B(F4) > 3: 2.5
  Firefly, F4/pGL4 for S/B(F4) > 3: 1.9
  Firefly, F4, 1% FBS, cmpd/DMSO (mean): 4.9
NR2F6; 10% FBS, 10 uM
  F4, Firefly/Renilla for S/B(F4) > 3: 4.3
  Firefly, F4/pGL4 for S/B(F4) > 3: 3.4
  Firefly, F4, 10% FBS, cmpd/DMSO (mean): 8.9
NR2F6; 10% FBS, 40 uM
  F4, Firefly/Renilla for S/B(F4) > 3: 1.4
  Firefly, F4/pGL4 for S/B(F4) > 3: 2.1
  Firefly, F4, 10% FBS, cmpd/DMSO (mean): 3.6
NR2F6; 1% FBS, 0.5 uM
  Firefly, F4, 1% FBS, cmpd/DMSO (mean): 1.5
NR2F6; 1% FBS, 2 uM
  Firefly, F4, 1% FBS, cmpd/DMSO (mean): 1.7
NR2F6; 1% FBS, 40 uM
  Firefly, F4, 1% FBS, cmpd/DMSO (mean): 0.3
NR2F6; 10% FBS, 0.5 uM
  Firefly, F4, 10% FBS, cmpd/DMSO (mean): 1.0
NR2F6; 10% FBS, 2 uM
  Firefly, F4, 10% FBS, cmpd/DMSO (mean): 1.5
NR2F6
  Activity, cmpd/DMSO: 5.7
Renilla; [1]
  fold induction at 0.5 µM: 1.1
  fold induction at 2 µM: 1.2
  fold induction at 10 µM: 1.7
  fold induction at 40 µM: 0.7
Renilla; [2]
  fold induction at 0.5 µM: 1.1
  fold induction at 2 µM: 1.2
  fold induction at 10 µM: 2
  fold induction at 40 µM: 1.6
Renilla; [3]
  fold induction at 0.5 µM: 1.1
  fold induction at 2 µM: 1.2
  fold induction at 10 µM: 2.1
  fold induction at 40 µM: 2.6
HEK293 pGL4; [4]
  fold induction at 0.5 µM: 1.2
HEK293 pGL4; [5]
  fold induction at 2 µM: 1.9
HEK293 pGL4; [6]
  fold induction at 10 µM: 3.8
HEK293 pGL4; [7]
  fold induction at 40 µM: 0.7
HEK293 pGL4; [8]
  fold induction at 0.5 µM: 1.4
HEK293 pGL4; [9]
  fold induction at 2 µM: 1.2
HEK293 pGL4; [10]
  fold induction at 10 µM: 2.6
HEK293 pGL4; [11]
  fold induction at 40 µM: 1.1
HEK293 pGL4; [12]
  fold induction at 0.5 µM: 1.3
HEK293 pGL4; [13]
  fold induction at 2 µM: 1.6
HEK293 pGL4; [14]
  fold induction at 10 µM: 2.6
HEK293 pGL4; [15]
  fold induction at 40 µM: 1.7
NR2F6 LBD; 0.5 uM
  Firefly LBD, cmpd/DMSO (mean): 1.2
NR2F6 LBD; 2 uM
  Firefly LBD, cmpd/DMSO (mean): 1.8
NR2F6 LBD; 10 uM
  Firefly LBD, cmpd/DMSO (mean): 3.8
NR2F6 LBD; 40 uM
  Firefly LBD, cmpd/DMSO (mean): 0.7

## CC1CCN([C@H]2CS(=O)(=O)C[C@@H]2S(=O)(=O)c2cccs2)CC1 [Compound D106]
NR2F6; 0.5 uM
  Firefly F4, cmpd/DMSO (mean): 1.5
NR2F6; 2 uM
  Firefly F4, cmpd/DMSO (mean): 2.3
NR2F6; 10 uM
  Firefly F4, cmpd/DMSO (mean): 5.4
NR2F6; 40 uM
  Firefly F4, cmpd/DMSO (mean): 0.8
NR2F6; 1% FBS, 10 uM
  F4, Firefly/Renilla for S/B(F4) > 3: 2.5
  Firefly, F4/pGL4 for S/B(F4) > 3: 1.7
  Firefly, F4, 1% FBS, cmpd/DMSO (mean): 4.6
NR2F6; 10% FBS, 10 uM
  F4, Firefly/Renilla for S/B(F4) > 3: 3.6
  Firefly, F4/pGL4 for S/B(F4) > 3: 2.7
  Firefly, F4, 10% FBS, cmpd/DMSO (mean): 7.1
NR2F6; 1% FBS, 0.5 uM
  Firefly, F4, 1% FBS, cmpd/DMSO (mean): 0.9
NR2F6; 1% FBS, 2 uM
  Firefly, F4, 1% FBS, cmpd/DMSO (mean): 1.9
NR2F6; 1% FBS, 40 uM
  Firefly, F4, 1% FBS, cmpd/DMSO (mean): 0.5
NR2F6; 10% FBS, 0.5 uM
  Firefly, F4, 10% FBS, cmpd/DMSO (mean): 1.6
NR2F6; 10% FBS, 2 uM
  Firefly, F4, 10% FBS, cmpd/DMSO (mean): 1.4
NR2F6; 10% FBS, 40 uM
  Firefly, F4, 10% FBS, cmpd/DMSO (mean): 1.7
NR2F6
  Activity, cmpd/DMSO: 5.2
Renilla; [1]
  fold induction at 0.5 µM: 1
  fold induction at 2 µM: 1.2
  fold induction at 10 µM: 1.7
  fold induction at 40 µM: 0.5
Renilla; [2]
  fold induction at 0.5 µM: 1.2
  fold induction at 2 µM: 1.4
  fold induction at 10 µM: 1.9
  fold induction at 40 µM: 1.1
Renilla; [3]
  fold induction at 0.5 µM: 1.2
  fold induction at 2 µM: 1.1
  fold induction at 10 µM: 2
  fold induction at 40 µM: 2
HEK293 pGL4; [4]
  fold induction at 0.5 µM: 1.1
HEK293 pGL4; [5]
  fold induction at 2 µM: 1.6
HEK293 pGL4; [6]
  fold induction at 10 µM: 3.6
HEK293 pGL4; [7]
  fold induction at 40 µM: 0.7
HEK293 pGL4; [8]
  fold induction at 0.5 µM: 1.1
HEK293 pGL4; [9]
  fold induction at 2 µM: 1.8
HEK293 pGL4; [10]
  fold induction at 10 µM: 2.8
HEK293 pGL4; [11]
  fold induction at 40 µM: 0.8
HEK293 pGL4; [12]
  fold induction at 0.5 µM: 0.9
HEK293 pGL4; [13]
  fold induction at 2 µM: 1.2
HEK293 pGL4; [14]
  fold induction at 10 µM: 2.7
HEK293 pGL4; [15]
  fold induction at 40 µM: 1.2
NR2F6 LBD; 0.5 uM
  Firefly LBD, cmpd/DMSO (mean): 1.2
NR2F6 LBD; 2 uM
  Firefly LBD, cmpd/DMSO (mean): 1.7
NR2F6 LBD; 10 uM
  Firefly LBD, cmpd/DMSO (mean): 4.0
NR2F6 LBD; 40 uM
  Firefly LBD, cmpd/DMSO (mean): 0.7
